From ChEMBL document CHEMBL1208728, “Design, synthesis, and structure-activity relationships of pyrazole derivatives as potential FabH inhibitors” (Bioorg Med Chem Lett, 2010)
Converted amounts (≈) assume the structure as drawn.

Columns and labels:
[1] = Toxicity against RBC assessed as hemolysis; format: cell-based; details: erythrocyte
[2] = target: T1, 3-oxoacyl-[acyl-carrier-protein] synthase 3 (Escherichia coli, UniProt C3TDZ2); assay: Inhibition of Escherichia coli FabH
T1 sequence (C3TDZ2 whole entry): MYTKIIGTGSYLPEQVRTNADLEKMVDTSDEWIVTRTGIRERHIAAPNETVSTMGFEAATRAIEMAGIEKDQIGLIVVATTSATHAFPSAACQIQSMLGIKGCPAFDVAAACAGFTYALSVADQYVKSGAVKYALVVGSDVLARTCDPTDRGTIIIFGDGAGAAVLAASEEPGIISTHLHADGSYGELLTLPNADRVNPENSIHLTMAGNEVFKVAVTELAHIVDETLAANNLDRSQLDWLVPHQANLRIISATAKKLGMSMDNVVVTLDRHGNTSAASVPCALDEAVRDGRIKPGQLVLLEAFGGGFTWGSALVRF

Bacillus subtilis = assay: Antimicrobial activity against Bacillus subtilis ATCC 6633 by MTT assay; format: functional
Pseudomonas aeruginosa = assay: Antimicrobial activity against Pseudomonas aeruginosa ATCC 13525 by MTT assay; format: functional
Staphylococcus aureus = assay: Antimicrobial activity against Staphylococcus aureus ATCC 6538 by MTT assay; format: functional
Enterobacter cloacae = assay: Antimicrobial activity against Enterobacter cloacae ATCC 13047 by MTT assay; format: functional
Escherichia coli = assay: Antimicrobial activity against Escherichia coli ATCC 35218 by MTT assay; format: functional
Enterococcus faecalis = assay: Antimicrobial activity against Streptococcus faecalis ATCC 9790 by MTT assay; format: functional

COc1ccc(C2=NN(C(C)=O)C(c3ccccc3Cl)C2)cc1 (stereo not drawn)
LC30 [1]: > 10 mg/mL
IC50 [2]: 31.4 µM
MIC (Bacillus subtilis): 25 µg/mL (≈ 76 µM)
MIC (Pseudomonas aeruginosa): > 50 µg/mL
MIC (Staphylococcus aureus): > 50 µg/mL
MIC (Enterobacter cloacae): 6.25 µg/mL (≈ 19 µM)
MIC (Escherichia coli): 6.25 µg/mL (≈ 19 µM)
MIC (Enterococcus faecalis): 12.5 µg/mL (≈ 38 µM)

COc1ccc(C2=NN(C(C)=O)C(c3ccc(Br)cc3)C2)cc1 (stereo not drawn)
LC30 [1]: > 10 mg/mL
IC50 [2]: 10.4 µM
MIC (Bacillus subtilis): 12.5 µg/mL (≈ 33.5 µM)
MIC (Pseudomonas aeruginosa): 12.5 µg/mL (≈ 33.5 µM)
MIC (Staphylococcus aureus): 12.5 µg/mL (≈ 33.5 µM)
MIC (Enterobacter cloacae): > 50 µg/mL
MIC (Escherichia coli): 1.56 µg/mL (≈ 4.18 µM)
MIC (Enterococcus faecalis): 3.12 µg/mL (≈ 8.37 µM)

COc1ccc(C2=NN(C(C)=O)C(c3ccccc3)C2)cc1 (stereo not drawn)
LC30 [1]: > 10 mg/mL
IC50 [2]: 46.7 µM
MIC (Bacillus subtilis): 6.25 µg/mL (≈ 21.2 µM)
MIC (Pseudomonas aeruginosa): 12.5 µg/mL (≈ 42.5 µM)
MIC (Staphylococcus aureus): > 50 µg/mL
MIC (Enterobacter cloacae): > 50 µg/mL
MIC (Escherichia coli): 25 µg/mL (≈ 84.9 µM)
MIC (Enterococcus faecalis): 50 µg/mL (≈ 170 µM)

COc1ccc(C2=NN(C(C)=O)C(c3ccc(OC)cc3)C2)cc1 (stereo not drawn)
LC30 [1]: > 10 mg/mL
IC50 [2]: 19.6 µM
MIC (Bacillus subtilis): 6.25 µg/mL (≈ 19.3 µM)
MIC (Pseudomonas aeruginosa): > 50 µg/mL
MIC (Staphylococcus aureus): 6.25 µg/mL (≈ 19.3 µM)
MIC (Enterobacter cloacae): 12.5 µg/mL (≈ 38.5 µM)
MIC (Escherichia coli): 3.12 µg/mL (≈ 9.63 µM)
MIC (Enterococcus faecalis): 12.5 µg/mL (≈ 38.5 µM)

COc1ccc(C2=NN(C(C)=O)C(c3ccc(F)cc3)C2)cc1 (stereo not drawn)
LC30 [1]: > 10 mg/mL
IC50 [2]: 4.2 µM
MIC (Bacillus subtilis): 6.25 µg/mL (≈ 20 µM)
MIC (Pseudomonas aeruginosa): 12.5 µg/mL (≈ 40 µM)
MIC (Staphylococcus aureus): 6.25 µg/mL (≈ 20 µM)
MIC (Enterobacter cloacae): 12.5 µg/mL (≈ 40 µM)
MIC (Escherichia coli): 0.39 µg/mL (≈ 1.25 µM)
MIC (Enterococcus faecalis): 1.56 µg/mL (≈ 5 µM)

COc1ccc(C2=NN(C(C)=O)C(c3ccc(C)cc3)C2)cc1 (stereo not drawn)
LC30 [1]: > 10 mg/mL
IC50 [2]: 17.3 µM
MIC (Bacillus subtilis): 25 µg/mL (≈ 81.1 µM)
MIC (Pseudomonas aeruginosa): 12.5 µg/mL (≈ 40.5 µM)
MIC (Staphylococcus aureus): 6.25 µg/mL (≈ 20.3 µM)
MIC (Enterobacter cloacae): 3.12 µg/mL (≈ 10.1 µM)
MIC (Escherichia coli): 6.25 µg/mL (≈ 20.3 µM)
MIC (Enterococcus faecalis): 25 µg/mL (≈ 81.1 µM)

COc1cc(OC)cc(C2CC(c3ccc(C)c(C)c3)=NN2C(C)=O)c1 (stereo not drawn)
MIC (Bacillus subtilis): 12.5 µg/mL (≈ 35.5 µM)
MIC (Pseudomonas aeruginosa): 3.12 µg/mL (≈ 8.87 µM)
MIC (Staphylococcus aureus): > 50 µg/mL
MIC (Enterobacter cloacae): 25 µg/mL (≈ 70.9 µM)
MIC (Escherichia coli): > 50 µg/mL
MIC (Enterococcus faecalis): 12.5 µg/mL (≈ 35.5 µM)

CC(=O)N1N=C(c2ccccc2)CC1c1ccc(Cl)cc1 (stereo not drawn)
MIC (Bacillus subtilis): > 50 µg/mL
MIC (Pseudomonas aeruginosa): 12.5 µg/mL (≈ 41.8 µM)
MIC (Staphylococcus aureus): 12.5 µg/mL (≈ 41.8 µM)
MIC (Enterobacter cloacae): 25 µg/mL (≈ 83.7 µM)
MIC (Escherichia coli): 25 µg/mL (≈ 83.7 µM)
MIC (Enterococcus faecalis): 12.5 µg/mL (≈ 41.8 µM)

COc1cc(OC)cc(C2CC(c3ccc(Br)cc3)=NN2C(C)=O)c1 (stereo not drawn)
MIC (Bacillus subtilis): 50 µg/mL (≈ 124 µM)
MIC (Pseudomonas aeruginosa): 3.12 µg/mL (≈ 7.75 µM)
MIC (Staphylococcus aureus): 6.25 µg/mL (≈ 15.5 µM)
MIC (Enterobacter cloacae): 12.5 µg/mL (≈ 31 µM)
MIC (Escherichia coli): 50 µg/mL (≈ 124 µM)
MIC (Enterococcus faecalis): 25 µg/mL (≈ 62 µM)

COc1ccc(C2CC(c3ccc(C)c(C)c3)=NN2C(C)=O)cc1 (stereo not drawn)
MIC (Bacillus subtilis): 12.5 µg/mL (≈ 38.8 µM)
MIC (Pseudomonas aeruginosa): 3.12 µg/mL (≈ 9.69 µM)
MIC (Staphylococcus aureus): 3.12 µg/mL (≈ 9.69 µM)
MIC (Enterobacter cloacae): 12.5 µg/mL (≈ 38.8 µM)
MIC (Escherichia coli): 25 µg/mL (≈ 77.5 µM)
MIC (Enterococcus faecalis): 12.5 µg/mL (≈ 38.8 µM)

CC(=O)N1N=C(c2ccc(Br)cc2)CC1c1ccccc1 (stereo not drawn)
MIC (Bacillus subtilis): 50 µg/mL (≈ 146 µM)
MIC (Pseudomonas aeruginosa): 12.5 µg/mL (≈ 36.4 µM)
MIC (Staphylococcus aureus): 6.25 µg/mL (≈ 18.2 µM)
MIC (Enterobacter cloacae): > 50 µg/mL
MIC (Escherichia coli): 12.5 µg/mL (≈ 36.4 µM)
MIC (Enterococcus faecalis): 25 µg/mL (≈ 72.8 µM)

CC(=O)N1N=C(c2ccc(Br)cc2)CC1c1ccccc1Cl (stereo not drawn)
MIC (Bacillus subtilis): 25 µg/mL (≈ 66.2 µM)
MIC (Pseudomonas aeruginosa): 6.25 µg/mL (≈ 16.5 µM)
MIC (Staphylococcus aureus): 25 µg/mL (≈ 66.2 µM)
MIC (Enterobacter cloacae): 3.12 µg/mL (≈ 8.27 µM)
MIC (Escherichia coli): 12.5 µg/mL (≈ 33.1 µM)
MIC (Enterococcus faecalis): 50 µg/mL (≈ 132 µM)

CC(=O)N1N=C(c2ccc(Cl)c(Cl)c2)CC1c1ccccc1 (stereo not drawn)
MIC (Bacillus subtilis): 6.25 µg/mL (≈ 18.8 µM)
MIC (Pseudomonas aeruginosa): 25 µg/mL (≈ 75 µM)
MIC (Staphylococcus aureus): > 50 µg/mL
MIC (Enterobacter cloacae): 25 µg/mL (≈ 75 µM)
MIC (Escherichia coli): 12.5 µg/mL (≈ 37.5 µM)
MIC (Enterococcus faecalis): 12.5 µg/mL (≈ 37.5 µM)

CC(=O)N1N=C(c2ccc(Cl)cc2)CC1c1ccc(F)cc1 (stereo not drawn)
MIC (Bacillus subtilis): 12.5 µg/mL (≈ 39.5 µM)
MIC (Pseudomonas aeruginosa): 12.5 µg/mL (≈ 39.5 µM)
MIC (Staphylococcus aureus): 12.5 µg/mL (≈ 39.5 µM)
MIC (Enterobacter cloacae): 25 µg/mL (≈ 78.9 µM)
MIC (Escherichia coli): 25 µg/mL (≈ 78.9 µM)
MIC (Enterococcus faecalis): 1.56 µg/mL (≈ 4.93 µM)

COc1ccc(C2CC(c3ccc(Cl)c(Cl)c3)=NN2C(C)=O)cc1 (stereo not drawn)
MIC (Bacillus subtilis): 3.12 µg/mL (≈ 8.6 µM)
MIC (Pseudomonas aeruginosa): 12.5 µg/mL (≈ 34.4 µM)
MIC (Staphylococcus aureus): 25 µg/mL (≈ 68.8 µM)
MIC (Enterobacter cloacae): 25 µg/mL (≈ 68.8 µM)
MIC (Escherichia coli): > 50 µg/mL
MIC (Enterococcus faecalis): 6.25 µg/mL (≈ 17.2 µM)

CC(=O)N1N=C(c2ccc(Br)cc2)CC1c1ccc(Br)cc1 (stereo not drawn)
MIC (Bacillus subtilis): 12.5 µg/mL (≈ 29.6 µM)
MIC (Pseudomonas aeruginosa): 6.25 µg/mL (≈ 14.8 µM)
MIC (Staphylococcus aureus): 3.12 µg/mL (≈ 7.4 µM)
MIC (Enterobacter cloacae): 25 µg/mL (≈ 59.2 µM)
MIC (Escherichia coli): 25 µg/mL (≈ 59.2 µM)
MIC (Enterococcus faecalis): 25 µg/mL (≈ 59.2 µM)

CC(=O)N1N=C(c2ccc(Br)cc2)CC1c1ccc(F)cc1 (stereo not drawn)
MIC (Bacillus subtilis): 25 µg/mL (≈ 69.2 µM)
MIC (Pseudomonas aeruginosa): 3.12 µg/mL (≈ 8.65 µM)
MIC (Staphylococcus aureus): 1.56 µg/mL (≈ 4.32 µM)
MIC (Enterobacter cloacae): 12.5 µg/mL (≈ 34.6 µM)
MIC (Escherichia coli): 12.5 µg/mL (≈ 34.6 µM)
MIC (Enterococcus faecalis): 1.56 µg/mL (≈ 4.32 µM)

CC(=O)N1N=C(c2ccccc2)CC1c1ccccc1 (stereo not drawn)
MIC (Bacillus subtilis): 25 µg/mL (≈ 94.6 µM)
MIC (Pseudomonas aeruginosa): 12.5 µg/mL (≈ 47.3 µM)
MIC (Staphylococcus aureus): 25 µg/mL (≈ 94.6 µM)
MIC (Enterobacter cloacae): 12.5 µg/mL (≈ 47.3 µM)
MIC (Escherichia coli): 25 µg/mL (≈ 94.6 µM)
MIC (Enterococcus faecalis): 12.5 µg/mL (≈ 47.3 µM)

CC(=O)N1N=C(c2ccc(Cl)c(Cl)c2)CC1c1ccc(Br)cc1 (stereo not drawn)
MIC (Bacillus subtilis): 1.56 µg/mL (≈ 3.79 µM)
MIC (Pseudomonas aeruginosa): 25 µg/mL (≈ 60.7 µM)
MIC (Staphylococcus aureus): > 50 µg/mL
MIC (Enterobacter cloacae): 12.5 µg/mL (≈ 30.3 µM)
MIC (Escherichia coli): 12.5 µg/mL (≈ 30.3 µM)
MIC (Enterococcus faecalis): 3.12 µg/mL (≈ 7.58 µM)

CC(=O)N1N=C(c2ccccc2)CC1c1ccccc1Cl (stereo not drawn)
MIC (Bacillus subtilis): 25 µg/mL (≈ 83.7 µM)
MIC (Pseudomonas aeruginosa): 25 µg/mL (≈ 83.7 µM)
MIC (Staphylococcus aureus): > 50 µg/mL
MIC (Enterobacter cloacae): 25 µg/mL (≈ 83.7 µM)
MIC (Escherichia coli): > 50 µg/mL
MIC (Enterococcus faecalis): 25 µg/mL (≈ 83.7 µM)

CC(=O)N1N=C(c2ccc(C)c(C)c2)CC1c1ccc(Cl)cc1 (stereo not drawn)
MIC (Bacillus subtilis): > 50 µg/mL
MIC (Pseudomonas aeruginosa): 6.25 µg/mL (≈ 19.1 µM)
MIC (Staphylococcus aureus): 1.56 µg/mL (≈ 4.78 µM)
MIC (Enterobacter cloacae): 6.25 µg/mL (≈ 19.1 µM)
MIC (Escherichia coli): 12.5 µg/mL (≈ 38.2 µM)
MIC (Enterococcus faecalis): 50 µg/mL (≈ 153 µM)

CC(=O)N1N=C(c2ccccc2F)CC1c1ccc(Br)cc1 (stereo not drawn)
MIC (Bacillus subtilis): 25 µg/mL (≈ 69.2 µM)
MIC (Pseudomonas aeruginosa): 12.5 µg/mL (≈ 34.6 µM)
MIC (Staphylococcus aureus): 25 µg/mL (≈ 69.2 µM)
MIC (Enterobacter cloacae): 12.5 µg/mL (≈ 34.6 µM)
MIC (Escherichia coli): 25 µg/mL (≈ 69.2 µM)
MIC (Enterococcus faecalis): 25 µg/mL (≈ 69.2 µM)

CC(=O)N1N=C(c2ccccc2F)CC1c1ccc(Cl)cc1 (stereo not drawn)
MIC (Bacillus subtilis): 12.5 µg/mL (≈ 39.5 µM)
MIC (Pseudomonas aeruginosa): 12.5 µg/mL (≈ 39.5 µM)
MIC (Staphylococcus aureus): > 50 µg/mL
MIC (Enterobacter cloacae): > 50 µg/mL
MIC (Escherichia coli): 25 µg/mL (≈ 78.9 µM)
MIC (Enterococcus faecalis): 12.5 µg/mL (≈ 39.5 µM)

COc1ccc(C2=NN(C(C)=O)C(c3ccc(Cl)cc3)C2)cc1 (stereo not drawn)
LC30 [1]: > 10 mg/mL
IC50 [2]: 7.6 µM
MIC (Bacillus subtilis): 6.25 µg/mL (≈ 19 µM)
MIC (Pseudomonas aeruginosa): 25 µg/mL (≈ 76 µM)
MIC (Staphylococcus aureus): 25 µg/mL (≈ 76 µM)
MIC (Enterobacter cloacae): 25 µg/mL (≈ 76 µM)
MIC (Escherichia coli): 0.78 µg/mL (≈ 2.37 µM)
MIC (Enterococcus faecalis): 6.25 µg/mL (≈ 19 µM)
